According to US20110312961A1, “2,5-Disubstituted Morpholine Orexin REceptor Antagonists” (priority 2008, published 2011):
pEC50, pKi: −log10 of the molar value. Read-outs that look alike come from different tables or passages of the source.

Legend:
CD-1 mice = assay: Formalin test; format: in vivo, mouse
Experimental: One of the most clinically predictive screening models of acute pain is the formalin test in mice (LeBars et al., 2001). In this paradigm, originally described by Dubuisson and Dennis (1977), a diluted solution of formalin is injected into the plantar surface of a subject's (rat or mouse) rear paw and nociceptive behavior is measured; for instance, licking and biting of the injected paw. Two phases of the response are observed. First an early phase, starting immediately after injection and lasting 5-10 minutes, followed by a late phase that can last from 15-60 minutes after injection. Nociceptive response is attributed to direct chemical stimulation in the early phase and inflammation/persistent pain in the later phase (Dubuisson and Dennis, 1977). The response in the late phase also depends on changes in processing of information in the spinal cord due to the afferent barrage during the early phase (Coderre et al., 1990). An advantage of the test is that two different types of stimuli are employed in the same assay to study the possibility of varying analgesic effects of a drug in the two phases of the test (Tjølsen and Hole, 1997).
Subjects (adult male CD-1 mice (Charles River, Raleigh, N.C.) weighing approximately 20-25 grams) were removed from their home cage and weighed, then placed in a clear Plexiglas™ observation box for an acclimation period of 20-30 minutes. Mice were then removed from the observation chambers and (2S,3R)—N-2-((3-pyridinyl)methyl)-1-azabicyclo[2.2.2]oct-3-yl)-3,5-difluorobenzamide (as the hydrochloride salt in 0.9% saline) (1, 3 or 10 mg/kg s.c. (calculated with respect to the free base)), morphine (5 mg/kg; s.c.) or 0.9% saline vehicle was administered subcutaneously in a volume of 1 mL/kg. Mice were then returned to the chamber for the predetermined pretreatment time of 30 minutes for (2S,3R)—N-2-((3-pyridinyl)methyl)-1-azabicyclo[2.2.2]oct-3-yl)-3,5-difluorobenzamide and morphine.
After the test compound pretreatment time, the animals were injected with formalin solution (2.5% derived as a 1:4 dilution of 10% phosphate buffered formalin solution (Sigma):distilled water). The subject's assigned paw was gasped gently and formalin solution was injected into the paw intra-dermally in the middle on the dorsal side. Once injected, the subject was immediately returned to its observation chamber and a timer was started to mark the beginning of Phase I. Each subject was videotaped for the entire 40-minute session. […] The time spent licking during that 1 min interval was recorded, and the presence or absence of paw favoring was noted.
For data analyses, phase I of the test was defined as 0 to 5 minutes after formalin injection, and phase II was defined as 20 to 40 minutes after formalin injection. The time spent licking during the 1 minute intervals during those time frames was recorded and graphed as mean±S.E.M. For comparisons across treatment groups, 1-way analyses of variance (ANOVAs) were performed for each phase of the session with treatment as the […] variable. Post-hoc analyses were performed when appropriate to determine specific group differences.

[1] = target: T1, human native ganglion-type nicotinic receptors (likely α3β4) (Homo sapiens, UniProt P30926+P32297); assay: [3H]epibatidine binding, SH-SY5Y membranes; conditions: read-out: Human ganglionic (SH-SY5Y), Ki
T1 construct: human native ganglion-type nicotinic receptors (likely α3β4); endogenous in cells; host or cells: SH-SY5Y

[2] = target: α7 nicotinic ACh receptors (Homo sapiens, UniProt P36544); assay: Electrophysiology at α7, dose-response and co-application with ACh (Dynaflow chip); format: cell-based
Experimental: Hump currents are defined as the tail current observed during co-application with endogenous ACh following agonist removal.
The channels were prepared as follows: Control solution (channel #2), application ligand itself (channel #3), application of acetylcholine itself (channel #1), and application of mixture of acetylcholine and ligand (channel #4).
Curve 1, FIG. 7B: The bar above the curve indicates time of ACh application. The curve represents current induced by a one second application of 70 μM ACh. The curve illustrates the result from moving the cell from channel #2 to channel #1 for a 1 second application of ACh and back to channel 2 (washout).
Curve 4, FIG. 7B: Curve 4 represents a repetition of Curve 1 at the end of measurements after application of the ligand and ACh/ligand mixture (recovery).
Curve 2, FIG. 7B: The down/up arrows indicates time of application.

Chain of α7 nicotinic ACh receptors (P36544 23-502): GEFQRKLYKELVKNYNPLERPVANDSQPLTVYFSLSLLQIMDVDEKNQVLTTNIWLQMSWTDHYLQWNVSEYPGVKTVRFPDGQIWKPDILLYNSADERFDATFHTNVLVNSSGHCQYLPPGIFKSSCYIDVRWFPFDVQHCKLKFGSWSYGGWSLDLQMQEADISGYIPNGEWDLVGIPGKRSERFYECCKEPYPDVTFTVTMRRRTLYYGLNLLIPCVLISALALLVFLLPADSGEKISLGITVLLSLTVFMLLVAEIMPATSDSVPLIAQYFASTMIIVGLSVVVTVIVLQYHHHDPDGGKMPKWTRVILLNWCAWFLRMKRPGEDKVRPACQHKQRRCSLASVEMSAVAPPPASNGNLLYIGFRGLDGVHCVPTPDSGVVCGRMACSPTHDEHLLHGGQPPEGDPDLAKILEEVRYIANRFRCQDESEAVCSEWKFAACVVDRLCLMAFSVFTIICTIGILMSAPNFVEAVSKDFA
T1 sequence (P32297 32-505): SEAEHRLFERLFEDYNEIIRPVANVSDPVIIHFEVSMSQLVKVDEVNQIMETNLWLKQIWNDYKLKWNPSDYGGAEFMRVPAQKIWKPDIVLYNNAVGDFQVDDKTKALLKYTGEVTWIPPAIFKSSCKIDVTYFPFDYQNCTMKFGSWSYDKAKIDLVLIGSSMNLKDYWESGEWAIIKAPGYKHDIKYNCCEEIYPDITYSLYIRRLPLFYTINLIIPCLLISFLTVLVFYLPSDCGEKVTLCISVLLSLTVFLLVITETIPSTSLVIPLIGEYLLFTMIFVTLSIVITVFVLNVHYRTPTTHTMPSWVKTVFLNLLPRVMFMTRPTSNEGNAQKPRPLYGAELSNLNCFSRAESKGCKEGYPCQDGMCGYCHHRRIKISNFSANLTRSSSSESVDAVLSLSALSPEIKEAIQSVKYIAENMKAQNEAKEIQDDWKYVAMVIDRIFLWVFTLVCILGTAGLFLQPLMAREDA
T1 sequence (P30926 22-498): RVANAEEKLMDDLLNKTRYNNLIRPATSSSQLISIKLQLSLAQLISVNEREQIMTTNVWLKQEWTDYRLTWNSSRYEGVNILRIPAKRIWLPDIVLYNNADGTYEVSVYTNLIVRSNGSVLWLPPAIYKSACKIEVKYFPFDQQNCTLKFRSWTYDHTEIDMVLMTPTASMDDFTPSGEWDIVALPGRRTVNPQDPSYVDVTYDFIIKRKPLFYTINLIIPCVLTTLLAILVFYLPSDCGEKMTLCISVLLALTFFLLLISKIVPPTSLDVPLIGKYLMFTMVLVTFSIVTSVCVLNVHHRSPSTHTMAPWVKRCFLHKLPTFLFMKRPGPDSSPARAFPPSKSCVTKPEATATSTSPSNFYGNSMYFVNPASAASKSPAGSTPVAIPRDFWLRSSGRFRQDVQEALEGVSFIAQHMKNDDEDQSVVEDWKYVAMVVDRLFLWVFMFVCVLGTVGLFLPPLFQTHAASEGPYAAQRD

## O=C(N[C@@H]1C2CCN(CC2)[C@H]1Cc1cccnc1)c1cc(F)cc(F)c1 [Compound A]
CD-1 mice; 10 mg/kg s.c., 20 to 40 minutes after formalin, P<0.05
  reduction of time spent licking the paw, phase II: significant in reducing the time spent licking the paw
CD-1 mice; 1, 3 or 10 mg/kg s.c., hydrochloride salt, 0 to 5 minutes after formalin
  reduction of time spent licking, phase I: no statistically significant dose
CD-1 mice; subsequent analysis of the videotapes, scored across the entire time period
  reduction of time spent licking the affected paw, phase I or phase II: failed to achieve statistical significance
[1]
  pKi: 4.32
[2]
  type of activity at the α7 NNR: partial agonists
[2]; 200 nM ligand, Curve 3 FIG. 7B
  current on application of the ligand following application of ACh: profound “hump” current
[2]; 200 nM, 5 second application, Curve 2 FIG. 7B
  current on application of the ligand alone: do not produce robust macro currents
[2]; co-application of compound with ACh, FIG. 6
  effect on ACh-induced current: enhances ACh-induced current
[2]; co-application with ACh, 100-500 nM range, n=4, FIG. 7C, read-out: EC50 of hump current
  pEC50: 6.92
[2]; co-application with ACh, FIG. 7C
  concentration at Emax of hump current: approximately 500 nM
[2]; dose-response, FIG. 5
  Emax: 54.4%
[2]; dose-response, FIG. 5, read-out: EC50 at α7 nicotinic receptors
  pEC50: 5.80
